Data taken from patent US9545392B2, “Carrier comprising a vitamin E derivative” (UCL BUSINESS PLC, priority 2007, dated 2017).

Tests used:
[1] = assay type: in vivo; details: rat, tail vein; 300 μl of 5% free or 1 ml of 0.2% encapsulated
Procedure: 300 μl of 5% fluorescein sodium or 1 ml of 0.2% encapsulated fluorescein sodium, were administered to the rat through the tail vain and the retina monitored. Free fluorescein was removed by use of ultracentrifugation and PD-10 columns as outlined earlier.
It is important to highlight that the retinal blood vessels were not seen with the encapsulated material (A-C) as they are without (D-F), although there is a hint of arterial wall fluorescence in the encapsulated treated eye at 34 minutes (B). […] They were absent from the non-encapsulated eyes. These focal patches of fluorescence are believed to be intact liposomes containing fluorescein. […] The appearance, of fluorescent patches or “monofocal leakages” of sodium flourescein is similar to that that has been described when BBB disruption occurs in the brain (see FIG. 20 from Natah, S. S. et al. J Appl Physiol 107: 1348-1356 2009).

[2] = assay type: in vivo; details: rat, tail vein, 2 hours; 300 μl of 5% free or 1 ml of 0.2% encapsulated
Procedure: 300 μl of 5% fluorescein sodium or 1 ml of 0.2% encapsulated fluorescein sodium, were administered to the rat through the tail vain and the retina monitored. Free fluorescein was removed by use of ultracentrifugation and PD-10; columns as outlined earlier. After 2 hours; under general anaesthesia, the animals underwent fixation perfusion with 4% paraformaldehyde. Brains were stored in 4% paraformaldehyde overnight, following which 800 um slices were cut and examined under fluorescent confocal microscopy.
The images in FIG. 24 come from similar regions in the brain from an animal with intravenous encapsulated fluorescein sodium (A-B) compared to one with plain intravenous fluorescein sodium (C-D). Both fluorescence (A, C) and transmission (B, D) images are shown. […] This confirms the fact that encapsulation allows the fluorescein sodium to cross the BBB.
The appearance of fluorescent patches or “monofocal leakages” of sodium flourescein is similar to that that has been described when BBB disruption occurs in the brain, as discussed earlier (Natah, S. S. et al. J Appl Physiol 107: 1348-1356 2009).

[3] = assay type: in vivo; details: intravitreal injection, eyes imaged after 3 hours
Procedure: To access the release of encapsulated material, liposomes containing encapsulated αBT and annexin V-776 were administered via Intravitreal injection and the eyes were imaged after 3 hours.

[4] = In vivo labelling of retinal vasculature by alpha-bungarotoxin
Text: The invention also provides alpha-bungarotoxin (αBT) for use in labelling the retinal vasculature of a subject. This is in vivo labelling. αBT is know to bind to nicotinic acetylcholine receptors (nAChRs) and is readily used to label the end plate of neuromuscular junctions ex vivo. It has not been applied to labelling in vivo due to it's potential neuromuscular inhibitory effects when used systemically. However, such problems are not seen when using it directly in the eye. The wall of the retinal vasculature, and in particular the arteries, is a muscular environment housing nAChRs. Therefore, αBT labels them specifically. This patterned labelling in the eye is something that is otherwise very difficult to achieve. Preferably, the αBT is administered directly to the retinal vasculature of the eye, for example, by intravitreal injection. Preferably, the αBT is labelled with an imaging moiety such as fluorescein.

**Q.** Which “crossing of the blood retinal barrier” value [1] does the source give for `O=C1OC2(c3ccc(O)cc3Oc3cc(O)ccc32)c2ccccc21` [Fluorescein, fluorescein sodium] here?
**A.** unable to cross an intact blood retinal barrier and remains isolated to the vessels

**Q.** And the “fluorescence in brain slices” value [2]?
**A.** no signal at all

**Q.** Which “release of cargo from liposomes” value [3] does the source give for “Annexin V-776: labelled annexin V, anionic phospholipid binding protein, given with liposomes” here?
**A.** successful release

**Q.** For alpha-bungarotoxin [αBT], which “labelling of retinal vessels” value [4] is on record?
**A.** specifically labels the arteries in the retina
